# Entries after “also recorded” stand apart in the source; their conditions may differ.
# What was measured:
# aMCI subjects [1] = assay: Explicit 3-alternative forced choice task (lure stimuli); format: in vivo, human
# Protocol: As described above, the drug treatment period is the two weeks preceding Visit 1 or 2 (with the two week period preceding the other Visit being the placebo phase). […]
# The activity of the subject's medial temporal lobe is measured by functional MRI during the subject's participation in an explicit 3-alternative forced choice task, where participants view novel, repeated and similar (“lure”) stimuli. The Psychophysics Toolbox extensions in Matlab 7.0 (The MathWorks, Natick, Mass.) is used for stimulus presentation and behavioral data collection. Stimuli are color photographs of common objects. Each participant undergoes a series of testing runs during the functional imaging sessions, each run consisting of a mix of three types of image pairs: similar pairs, identical pairs and unrelated foils. These image pairs are fully randomized throughout the run and presented individually as a series of images (see FIG. 10A). Participants are instructed to make a judgment as to whether each object seen is new, old or similar. Of critical interest are the participants' responses when presented with the second of the pair of similar objects (the “lure”; see FIG. 10B). The correct identification by the subject of lure stimuli as “similar,” provides behavioral evidence of pattern separation, i.e., the separation of similar experiences into distinct non-overlapping representations. […]
# As described above, the drug treatment period is the two weeks preceding Visit 1 or 2 (with the two week period preceding the other Visit being the placebo phase). […] For the subjects receiving the 62.5 mg BID drug treatment, a quarter of a scored 250 mg tablet of levetiracetam is used to achieve a dose of 62.5 twice a day, i.e., 125 mg/day which is approximately 1.5 mg/kg/day.
# The activity of the subject's medial temporal lobe is measured by functional MRI during the subject's participation in an explicit 3-alternative forced choice task, where participants view novel, repeated and similar (“lure”) stimuli. […]
# aMCI subjects [2] = test system: aMCI subjects; set-up: species or system human; details: in vivo
# [3] = test system: reelin in Entorhinal Cortex (EC2); assay: In situ hybridization of reelin mRNA after chronic levetiracetam; format: in vivo, rat; details: levetiracetam 10 mg/kg/day, osmotic minipumps, four weeks (28 days), aged-impaired rats; vs AI-VEH p=0.033
# aged-impaired (AI) rats = assay: Radial Arm Maze task with one-hour delay, levetiracetam and/or valproate; format: in vivo, rat; details: for effective in reducing the number of errors: levetiracetam on its own
# aMCI subjects [4] = assay: fMRI activity of medial temporal lobe subregions during memory judgments; format: in vivo, human
# [5] = cited from earlier work
structure (smiles),measurement,setting,value
"CC[C@@H](C(N)=O)N1CCCC1=O [levetiracetam, (2S)-2-(2-oxopyrrolidin-1-yl)butanamide]",performance in the memory task (similar vs old responses to lures),"aMCI subjects [1]; levetiracetam 62.5 mg BID for two weeks vs placebo, p=0.041",improves significantly
same,performance in the memory task (similar vs old responses to lures),"aMCI subjects [1]; levetiracetam 125 mg twice a day for two weeks vs placebo, p=0.039",improves significantly
same,performance in the memory task (similar vs old responses to lures),"aMCI subjects [1]; levetiracetam 250 mg BID for two weeks vs placebo, p=0.2396",does not significantly improve
same,"performance in Buschke Selective Reminding Test-Delayed Recall, Benton Visual Retention Test, Verbal Paired Associates Test-Recognition and -Delayed Recall",aMCI subjects [2],fail to rescue performance
same,reelin (mRNA expression) in entorhinal cortex,[3],restores the levels of reelin; also recorded: significantly increased the expression of reelin
same,effective doses in the animal model,"aged-impaired (AI) rats; AI rats, given acutely",5 to 10 mg/kg
same,performance of AI rats in the radial maze task,aged-impaired (AI) rats; levetiracetam 20 mg/kg,fails to improve the performance
same,effective in reducing the number of errors,aged-impaired (AI) rats; 1.25 mg/kg or 2.5 mg/kg i.p.,not
same,effective in reducing the number of errors,aged-impaired (AI) rats; 5-10 mg/kg i.p.,effective
same,DG/CA3 hyperactivity during memory judgments,"aMCI subjects [4]; levetiracetam 62.5 mg BID for two weeks, N=20",does not significantly reduce
same,entorhinal cortex (EC) activity during memory judgments,aMCI subjects [4]; levetiracetam 125 mg twice a day for two weeks vs placebo,increases EC activity
same,DG/CA3 activity during lure stimuli correctly identified as similar,"aMCI subjects [4]; levetiracetam 125 mg twice a day for two weeks vs placebo, p=0.037",reduces DG/CA3 hyper-activity
same,DG/CA3 hyperactivity during memory judgments,"aMCI subjects [4]; levetiracetam 250 mg BID for two weeks, N=17",does not significantly reduce
same,absorption,[5]; after oral administration,rapidly and almost completely absorbed
same,Plasma half-life expected in elderly,"[5]; elderly, due to decreased renal function",9 to 10 h
same,time of peak plasma concentrations,[5]; following oral administration,about 1 hour
same,Plasma half-life,[5]; in vivo,approximately 7±1 hour
same,time to steady state,[5]; multiple twice-daily dosing,2 days
same,effect of food on bioavailability,[5]; oral,not affected by food

# Source: patent publication US10806717B2, “Methods and compositions for improving cognitive function” (The Johns Hopkins University, priority 2013, dated 2020)
